From paper PMC7098970, “Neurosteroids as Selective Inhibitors of Glycine Receptor Activity: Structure-Activity Relationship Study on Endogenous Androstanes and Androstenes” (Frontiers in Molecular Neuroscience, 2020)
Entries after “also recorded” stand apart in the source; their conditions may differ.

Each compound was assayed on glycine receptor (GlyR) (assay: Glycine-induced chloride current (IGly), whole-cell patch-clamp in isolated pyramidal neurons of the rat hippocampus). Conditions: 0.1 μM of steroid; 100 μM glycine; mean ± SEM, normalized.
Format: cell-based
Method: (§1) All experiments were conducted per the requirements of the Ministry of Public Health of the Russian Federation and were consistent with the EU directive for Use of Experimental Animals of the European Community. […] The cells were isolated from transverse hippocampal slices as described in detail elsewhere ([Vorobjev, 1991]). Briefly, the slices (200–500 μm) of Wistar rats (11–14 days of age) hippocampus or cerebellum were incubated at room temperature for at least 2 h in a solution containing the following components (in mM): 124 NaCl, 3 KCl, 2 CaCl2, 2 MgSO4, 25 NaHCO3, 1.3 NaH2PO4, 10 D-glucose, pH 7.4. The saline was continuously stirred and bubbled with carbogen (95% 0_2 + 5% CO2). Single pyramidal neurons from the hippocampal CA3 area or Purkinje cells from sagittal slices of the cerebellum were isolated by a vibrating fused glass pipette with a spherical tip.
(§2) Isolated neurons were patch clamped and then lifted into the outflow of the control bath solution. […] The substances were applied through glass capillary, 0.1 mm in diameter, which could be rapidly displaced laterally ([Vorobjev et al., 1996]). A fast perfusion technique allows a complete exchange of external solution surrounding a neuron within 20 ms. […] Transmembrane currents were recorded using a conventional patch-clamp technique in the whole-cell configuration. […] The solution in the recording pipette contained the following (in mM): 40 CsF, 100 CsCl, 0.5 CaCl2, 5 EGTA, 3 MgCl2, 4 NaATP, 5 HEPES, pH 7.3. The composition of the extracellular solution was as follows (in mM): 140 NaCl, 3 KCl, 3 CaCl2, 3 MgCl2, 10 D-glucose, 10 HEPES hemisodium, and pH 7.4. Recording of the currents was performed using EPC7 patch-clamp amplifier (HEKA Electronik, Germany). The holding potential was maintained at −70 mV. Transmembrane currents were filtered at 3 kHz, stored and analyzed with IBM-PC computer, using homemade software.
(§3) Statistical analysis was performed with the help of Prism Graphpad software. All comparisons were made with ANOVA-test using Dunnett’s multiple comparison test and Student’s unpaired t-test at a significance level of p = 0.05. N = 5–8 cells from 3 to 4 animals for every concentration. […] The meanings of asterisks (probability levels) in figures is the following: ^∗P < 0.05, ^∗∗P < 0.01. The IC50 values for steroids inhibition of the IGly and IGABA were determined using the equation: Y = 1 – [max/(1 + (IC50/C)^n)], where max is the maximum inhibition attainable, C is the concentration of steroid, IC50 is the half-maximal inhibitory concentration and n is the slope factor (Hill coefficient).
(§4) First, the ability of steroids to affect the holding current at voltage-clamp regime was tested. […] The experiments with IGly were conducted on rat hippocampal neurons, and experiments with IGABA were conducted on rat cerebellar Purkinje cells.

Compound	τdes/τdes control of IGly
C[C@]12CCC(=O)C[C@H]1CC[C@@H]1[C@@H]2CC[C@]2(C)C(=O)CC[C@@H]12 [Compound 9, 5β-Androstane-3,17-dione]	0.72 ± 0.07

Same assay, conditions: 10 μM compound; 100 μM glycine

Compound	τdes IGly (effect on time constant of desensitization)
C[C@]12CCC(=O)C[C@H]1CC[C@@H]1[C@@H]2CC[C@]2(C)C(=O)CC[C@@H]12 [Compound 9, 5β-Androstane-3,17-dione]	−68%

Same assay, conditions: 10 μM of steroid; 100 μM glycine; mean ± SEM, normalized

Compound	Ipeak/Ipeak control of IGly
C[C@]12CCC(=O)C[C@H]1CC[C@@H]1[C@@H]2CC[C@]2(C)C(=O)CC[C@@H]12 [Compound 9, 5β-Androstane-3,17-dione]	0.77 ± 0.03

Same assay, conditions: 600–1000 ms application on pyramidal neurons; read-out: EC50 of agonist for IGly

Compound	EC50
NCC(=O)O [glycine]	[…]

Same assay, conditions: Hill fit, peak amplitude; 100 μM glycine

Compound	Ipeak max (maximum inhibition attainable) of IGly
C[C@]12CCC(=O)C[C@H]1CC[C@@H]1[C@@H]2CC[C@]2(C)C(=O)CC[C@@H]12 [Compound 9, 5β-Androstane-3,17-dione]	0.68 ± 0.09

Same assay, conditions: Hill fit, time constant of desensitization; 100 μM glycine

Compound	τdes max (maximum inhibition attainable) of IGly
C[C@]12CCC(=O)C[C@H]1CC[C@@H]1[C@@H]2CC[C@]2(C)C(=O)CC[C@@H]12 [Compound 9, 5β-Androstane-3,17-dione]	0.79 ± 0.11

Same assay, conditions: peak amplitude; 100 μM glycine

Compound	Ipeak Hill coefficient of IGly
C[C@]12CCC(=O)C[C@H]1CC[C@@H]1[C@@H]2CC[C@]2(C)C(=O)CC[C@@H]12 [Compound 9, 5β-Androstane-3,17-dione]	1.0 ± 0.19

Same assay, conditions: read-out: Ipeak IC50 of IGly; inhibition of peak amplitude; 100 μM glycine

Compound	IC50
C[C@]12CCC(=O)C[C@H]1CC[C@@H]1[C@@H]2CC[C@]2(C)C(=O)CC[C@@H]12 [Compound 9, 5β-Androstane-3,17-dione]	22 ± 2.8 µM

Same assay, conditions: read-out: τdes IC50 of IGly; acceleration of desensitization (decrease in τdes); 100 μM glycine

Compound	IC50
C[C@]12CCC(=O)C[C@H]1CC[C@@H]1[C@@H]2CC[C@]2(C)C(=O)CC[C@@H]12 [Compound 9, 5β-Androstane-3,17-dione]	0.4 ± 0.12 µM

Same assay, conditions: time constant of desensitization; 100 μM glycine

Compound	τdes Hill coefficient of IGly
C[C@]12CCC(=O)C[C@H]1CC[C@@H]1[C@@H]2CC[C@]2(C)C(=O)CC[C@@H]12 [Compound 9, 5β-Androstane-3,17-dione]	0.56 ± 0.14

The compounds below were run against T1, GABAA receptors (Rattus norvegicus, UniProt P18508+P62813+P63138) (assay: not given). Conditions: not given.
T1 construct: Single pyramidal neurons from the hippocampal CA3 area or Purkinje cells from sagittal slices of the cerebellum were isolated; endogenous in cells; host or cells: acutely isolated Purkinje cells from cerebellar slices of Wistar rats, 11-14 days old
T1 sequence (P62813 28-455): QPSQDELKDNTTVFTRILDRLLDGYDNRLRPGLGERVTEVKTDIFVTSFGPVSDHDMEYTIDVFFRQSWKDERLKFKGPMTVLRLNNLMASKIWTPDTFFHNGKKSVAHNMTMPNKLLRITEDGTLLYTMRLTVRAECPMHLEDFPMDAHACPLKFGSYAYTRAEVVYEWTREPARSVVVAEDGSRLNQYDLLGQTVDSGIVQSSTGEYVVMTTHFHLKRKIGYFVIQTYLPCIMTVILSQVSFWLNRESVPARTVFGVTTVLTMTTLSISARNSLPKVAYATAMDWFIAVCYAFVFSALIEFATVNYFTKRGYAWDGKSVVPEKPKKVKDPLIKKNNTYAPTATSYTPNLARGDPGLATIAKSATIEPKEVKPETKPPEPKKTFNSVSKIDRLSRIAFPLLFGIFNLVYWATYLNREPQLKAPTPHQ
T1 sequence (P63138 25-474 limits assumed): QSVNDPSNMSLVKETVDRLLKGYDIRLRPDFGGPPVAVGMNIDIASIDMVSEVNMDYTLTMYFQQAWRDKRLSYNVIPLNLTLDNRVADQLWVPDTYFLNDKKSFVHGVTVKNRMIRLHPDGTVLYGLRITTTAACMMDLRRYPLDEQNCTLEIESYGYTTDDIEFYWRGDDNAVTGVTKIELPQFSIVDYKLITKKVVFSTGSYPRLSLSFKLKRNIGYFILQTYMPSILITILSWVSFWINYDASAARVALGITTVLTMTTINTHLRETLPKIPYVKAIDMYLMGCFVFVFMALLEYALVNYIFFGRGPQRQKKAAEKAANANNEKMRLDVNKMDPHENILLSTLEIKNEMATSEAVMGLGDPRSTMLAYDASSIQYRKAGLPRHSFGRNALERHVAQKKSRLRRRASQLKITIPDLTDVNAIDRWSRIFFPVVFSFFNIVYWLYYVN
T1 sequence (P18508 39-466): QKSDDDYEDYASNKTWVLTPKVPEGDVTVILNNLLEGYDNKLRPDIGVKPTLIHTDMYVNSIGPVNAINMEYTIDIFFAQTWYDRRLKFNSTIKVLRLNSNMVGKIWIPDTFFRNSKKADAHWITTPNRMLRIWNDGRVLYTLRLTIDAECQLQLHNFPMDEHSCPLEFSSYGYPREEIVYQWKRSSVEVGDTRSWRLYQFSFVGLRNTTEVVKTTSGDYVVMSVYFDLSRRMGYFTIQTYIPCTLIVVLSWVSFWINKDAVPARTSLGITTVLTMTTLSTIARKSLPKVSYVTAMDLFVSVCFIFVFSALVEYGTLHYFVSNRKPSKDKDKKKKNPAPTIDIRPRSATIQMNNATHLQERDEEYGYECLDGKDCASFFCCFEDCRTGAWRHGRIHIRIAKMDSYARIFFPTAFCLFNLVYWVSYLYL
Format: cell-based
Method: as §1, §2, §3, §4

Compound	Ipeak/Ipeak control of IGABA	Modulation of IGABA (peak amplitude or rate of decay/desensitization)	τdes IGABA (effect in words)	τdes/τdes control of IGABA	Block of IGABA
C[C@]12CCC(=O)C[C@H]1CC[C@@H]1[C@@H]2CC[C@]2(C)C(=O)CC[C@@H]12 [Compound 9, 5β-Androstane-3,17-dione]	0.99 ± 0.01	did not modulate; also recorded: remained inactive; also recorded: did not change	^cNo effect	0.97 ± 0.03	–
CN1CCc2cc3c(cc2[C@H]1[C@@H]1OC(=O)c2c1ccc1c2OCO1)OCO3 [bicuculline, reference compound]	–	–	–	–	reversibly blocked
